Laboratory results from the supplement of paper PMC8882468.

The compounds below were run on HCI-010 (organoid from a breast cancer xenograft) (assay: CTG-3D luminescence at 96 h relative to day-0 seeding control (ratio to day 0); higher = more growth / less cytotoxicity; PDxO 3D drug screen, 96 h, CTG-3D normalised to day-0 seeding control.). Details: 12.5 pM; days in culture: 52.

Going from `C[C@@H]1COCCN1c1cc(C2([S@](C)(=N)=O)CC2)nc(-c2cc[nH]c3nccc2-3)n1` [ceralasertib] to `NC1(C(=O)N[C@@H](CCO)c2ccc(Cl)cc2)CCN(c2nc[nH]c3nccc2-3)CC1` [capivasertib], the “CTG-3D luminescence at 96 h” value falls from 2.13 to 2.05.

First: CCN1CCN(Cc2ccc(Nc3ncc(F)c(-c4cc(F)c5nc(C)n(C(C)C)c5c4)n3)nc2)CC1 [abemaciclib]
Second: Cc1cc(Nc2ncc(Cl)c(Nc3ccccc3S(=O)(=O)C(C)C)n2)c(OC(C)C)cc1C1CCNCC1 [ceritinib]
The “CTG-3D luminescence at 96 h” value of the first is lower: 1.92 for the first, 2.34 for the second.

Compared with `CC(C)n1nc(-c2ccc3oc(N)nc3c2)c2c(N)ncnc21` [sapanisertib], `NC(=O)c1cccc2cn(-c3ccc([C@@H]4CCCNC4)cc3)nc12` [niraparib] is lower in “CTG-3D luminescence at 96 h” value: 2.19 for the first, 1.94 for the second.

Going from `O=C(c1ccc(F)c(F)c1Nc1ccc(I)cc1F)N1CC(O)([C@@H]2CCCCN2)C1` [cobimetinib] to `CS(=O)(=O)c1ccc(C(=O)Nc2ccc(Cl)c(-c3ccccn3)c2)c(Cl)c1` [vismodegib], the “CTG-3D luminescence at 96 h” value falls from 2.3 to 1.83.

`C[C@H](NC(=O)CCC(F)(F)F)C(=O)N[C@@H]1C(=O)N(CCO)c2ncccc2-c2ccccc21` [crenigacestat] was tested, and the “CTG-3D luminescence at 96 h” value was 2.36.

Same assay, conditions: 12.5 pM; days in culture: 65

First: C[C@@H]1COCCN1c1cc(C2([S@](C)(=N)=O)CC2)nc(-c2cc[nH]c3nccc2-3)n1 [ceralasertib]
Second: NC1(C(=O)N[C@@H](CCO)c2ccc(Cl)cc2)CCN(c2nc[nH]c3nccc2-3)CC1 [capivasertib]
The “CTG-3D luminescence at 96 h” value of the first is higher: 1.69 for the first, 1.57 for the second.

Compared with `CCN1CCN(Cc2ccc(Nc3ncc(F)c(-c4cc(F)c5nc(C)n(C(C)C)c5c4)n3)nc2)CC1` [abemaciclib], `Cc1cc(Nc2ncc(Cl)c(Nc3ccccc3S(=O)(=O)C(C)C)n2)c(OC(C)C)cc1C1CCNCC1` [ceritinib] is lower in “CTG-3D luminescence at 96 h” value: 1.68 for the first, 1.61 for the second.

Compared with `CC(C)n1nc(-c2ccc3oc(N)nc3c2)c2c(N)ncnc21` [sapanisertib], `NC(=O)c1cccc2cn(-c3ccc([C@@H]4CCCNC4)cc3)nc12` [niraparib] is lower in “CTG-3D luminescence at 96 h” value: 1.61 for the first, 1.44 for the second.

Compared with `O=C(c1ccc(F)c(F)c1Nc1ccc(I)cc1F)N1CC(O)([C@@H]2CCCCN2)C1` [cobimetinib], `CS(=O)(=O)c1ccc(C(=O)Nc2ccc(Cl)c(-c3ccccn3)c2)c(Cl)c1` [vismodegib] is lower in “CTG-3D luminescence at 96 h” value: 1.64 for the first, 1.54 for the second.

`C[C@H](NC(=O)CCC(F)(F)F)C(=O)N[C@@H]1C(=O)N(CCO)c2ncccc2-c2ccccc21` [crenigacestat] was tested, and the “CTG-3D luminescence at 96 h” value was 1.61.

Same assay, conditions: 12.5 pM; days in culture: 103

Compared with `C[C@@H]1COCCN1c1cc(C2([S@](C)(=N)=O)CC2)nc(-c2cc[nH]c3nccc2-3)n1` [ceralasertib], `NC1(C(=O)N[C@@H](CCO)c2ccc(Cl)cc2)CCN(c2nc[nH]c3nccc2-3)CC1` [capivasertib] is lower in “CTG-3D luminescence at 96 h” value: 3.6 for the first, 3.5 for the second.

First: CCN1CCN(Cc2ccc(Nc3ncc(F)c(-c4cc(F)c5nc(C)n(C(C)C)c5c4)n3)nc2)CC1 [abemaciclib]
Second: Cc1cc(Nc2ncc(Cl)c(Nc3ccccc3S(=O)(=O)C(C)C)n2)c(OC(C)C)cc1C1CCNCC1 [ceritinib]
The “CTG-3D luminescence at 96 h” value of the first is lower: 3.48 for the first, 3.59 for the second.

Going from `CC(C)n1nc(-c2ccc3oc(N)nc3c2)c2c(N)ncnc21` [sapanisertib] to `NC(=O)c1cccc2cn(-c3ccc([C@@H]4CCCNC4)cc3)nc12` [niraparib], the “CTG-3D luminescence at 96 h” value falls from 3.65 to 3.06.

First: O=C(c1ccc(F)c(F)c1Nc1ccc(I)cc1F)N1CC(O)([C@@H]2CCCCN2)C1 [cobimetinib]
Second: CS(=O)(=O)c1ccc(C(=O)Nc2ccc(Cl)c(-c3ccccn3)c2)c(Cl)c1 [vismodegib]
The “CTG-3D luminescence at 96 h” value of the first is higher: 3.83 for the first, 2.84 for the second.

`C[C@H](NC(=O)CCC(F)(F)F)C(=O)N[C@@H]1C(=O)N(CCO)c2ncccc2-c2ccccc21` [crenigacestat] was tested, and the “CTG-3D luminescence at 96 h” value was 3.59.

Same assay, conditions: 0.00025 µM; days in culture: 52

Compared with `C[C@@H]1COCCN1c1cc(C2([S@](C)(=N)=O)CC2)nc(-c2cc[nH]c3nccc2-3)n1` [ceralasertib], `NC1(C(=O)N[C@@H](CCO)c2ccc(Cl)cc2)CCN(c2nc[nH]c3nccc2-3)CC1` [capivasertib] is lower in “CTG-3D luminescence at 96 h” value: 2.39 for the first, 2.33 for the second.

Going from `CCN1CCN(Cc2ccc(Nc3ncc(F)c(-c4cc(F)c5nc(C)n(C(C)C)c5c4)n3)nc2)CC1` [abemaciclib] to `Cc1cc(Nc2ncc(Cl)c(Nc3ccccc3S(=O)(=O)C(C)C)n2)c(OC(C)C)cc1C1CCNCC1` [ceritinib], the “CTG-3D luminescence at 96 h” value falls from 2.34 to 2.15.

Compared with `CC(C)n1nc(-c2ccc3oc(N)nc3c2)c2c(N)ncnc21` [sapanisertib], `NC(=O)c1cccc2cn(-c3ccc([C@@H]4CCCNC4)cc3)nc12` [niraparib] is lower in “CTG-3D luminescence at 96 h” value: 2.6 for the first, 2.41 for the second.

Going from `O=C(c1ccc(F)c(F)c1Nc1ccc(I)cc1F)N1CC(O)([C@@H]2CCCCN2)C1` [cobimetinib] to `CS(=O)(=O)c1ccc(C(=O)Nc2ccc(Cl)c(-c3ccccn3)c2)c(Cl)c1` [vismodegib], the “CTG-3D luminescence at 96 h” value falls from 2.56 to 1.98.

For `C[C@H](NC(=O)CCC(F)(F)F)C(=O)N[C@@H]1C(=O)N(CCO)c2ncccc2-c2ccccc21` [crenigacestat], the “CTG-3D luminescence at 96 h” value was 2.09.

Same assay, conditions: 0.00025 µM; days in culture: 65

Going from `C[C@@H]1COCCN1c1cc(C2([S@](C)(=N)=O)CC2)nc(-c2cc[nH]c3nccc2-3)n1` [ceralasertib] to `NC1(C(=O)N[C@@H](CCO)c2ccc(Cl)cc2)CCN(c2nc[nH]c3nccc2-3)CC1` [capivasertib], the “CTG-3D luminescence at 96 h” value rises from 1.62 to 1.77.

First: CCN1CCN(Cc2ccc(Nc3ncc(F)c(-c4cc(F)c5nc(C)n(C(C)C)c5c4)n3)nc2)CC1 [abemaciclib]
Second: Cc1cc(Nc2ncc(Cl)c(Nc3ccccc3S(=O)(=O)C(C)C)n2)c(OC(C)C)cc1C1CCNCC1 [ceritinib]
The “CTG-3D luminescence at 96 h” value of the first is higher: 1.83 for the first, 1.61 for the second.

Going from `CC(C)n1nc(-c2ccc3oc(N)nc3c2)c2c(N)ncnc21` [sapanisertib] to `NC(=O)c1cccc2cn(-c3ccc([C@@H]4CCCNC4)cc3)nc12` [niraparib], the “CTG-3D luminescence at 96 h” value rises from 1.71 to 1.78.

Going from `O=C(c1ccc(F)c(F)c1Nc1ccc(I)cc1F)N1CC(O)([C@@H]2CCCCN2)C1` [cobimetinib] to `CS(=O)(=O)c1ccc(C(=O)Nc2ccc(Cl)c(-c3ccccn3)c2)c(Cl)c1` [vismodegib], the “CTG-3D luminescence at 96 h” value falls from 1.75 to 1.74.

In the case of `C[C@H](NC(=O)CCC(F)(F)F)C(=O)N[C@@H]1C(=O)N(CCO)c2ncccc2-c2ccccc21` [crenigacestat], the “CTG-3D luminescence at 96 h” value is reported as 1.63.

Same assay, conditions: 0.00025 µM; days in culture: 103

Going from `C[C@@H]1COCCN1c1cc(C2([S@](C)(=N)=O)CC2)nc(-c2cc[nH]c3nccc2-3)n1` [ceralasertib] to `NC1(C(=O)N[C@@H](CCO)c2ccc(Cl)cc2)CCN(c2nc[nH]c3nccc2-3)CC1` [capivasertib], the “CTG-3D luminescence at 96 h” value rises from 3.3 to 3.47.

Going from `CCN1CCN(Cc2ccc(Nc3ncc(F)c(-c4cc(F)c5nc(C)n(C(C)C)c5c4)n3)nc2)CC1` [abemaciclib] to `Cc1cc(Nc2ncc(Cl)c(Nc3ccccc3S(=O)(=O)C(C)C)n2)c(OC(C)C)cc1C1CCNCC1` [ceritinib], the “CTG-3D luminescence at 96 h” value rises from 3.18 to 3.48.

Compared with `CC(C)n1nc(-c2ccc3oc(N)nc3c2)c2c(N)ncnc21` [sapanisertib], `NC(=O)c1cccc2cn(-c3ccc([C@@H]4CCCNC4)cc3)nc12` [niraparib] is higher in “CTG-3D luminescence at 96 h” value: 3.1 for the first, 3.18 for the second.

Going from `O=C(c1ccc(F)c(F)c1Nc1ccc(I)cc1F)N1CC(O)([C@@H]2CCCCN2)C1` [cobimetinib] to `CS(=O)(=O)c1ccc(C(=O)Nc2ccc(Cl)c(-c3ccccn3)c2)c(Cl)c1` [vismodegib], the “CTG-3D luminescence at 96 h” value falls from 3.96 to 3.06.

In the case of `C[C@H](NC(=O)CCC(F)(F)F)C(=O)N[C@@H]1C(=O)N(CCO)c2ncccc2-c2ccccc21` [crenigacestat], the “CTG-3D luminescence at 96 h” value is reported as 3.73.

Same assay, conditions: 0.005 µM; days in culture: 52

Going from `C[C@@H]1COCCN1c1cc(C2([S@](C)(=N)=O)CC2)nc(-c2cc[nH]c3nccc2-3)n1` [ceralasertib] to `NC1(C(=O)N[C@@H](CCO)c2ccc(Cl)cc2)CCN(c2nc[nH]c3nccc2-3)CC1` [capivasertib], the “CTG-3D luminescence at 96 h” value rises from 2.26 to 2.4.

Compared with `CCN1CCN(Cc2ccc(Nc3ncc(F)c(-c4cc(F)c5nc(C)n(C(C)C)c5c4)n3)nc2)CC1` [abemaciclib], `Cc1cc(Nc2ncc(Cl)c(Nc3ccccc3S(=O)(=O)C(C)C)n2)c(OC(C)C)cc1C1CCNCC1` [ceritinib] is higher in “CTG-3D luminescence at 96 h” value: 2.3 for the first, 2.46 for the second.

First: CC(C)n1nc(-c2ccc3oc(N)nc3c2)c2c(N)ncnc21 [sapanisertib]
Second: NC(=O)c1cccc2cn(-c3ccc([C@@H]4CCCNC4)cc3)nc12 [niraparib]
The “CTG-3D luminescence at 96 h” value of the first is lower: 1.89 for the first, 2.17 for the second.

Compared with `O=C(c1ccc(F)c(F)c1Nc1ccc(I)cc1F)N1CC(O)([C@@H]2CCCCN2)C1` [cobimetinib], `CS(=O)(=O)c1ccc(C(=O)Nc2ccc(Cl)c(-c3ccccn3)c2)c(Cl)c1` [vismodegib] is lower in “CTG-3D luminescence at 96 h” value: 2.39 for the first, 2.08 for the second.

In the case of `C[C@H](NC(=O)CCC(F)(F)F)C(=O)N[C@@H]1C(=O)N(CCO)c2ncccc2-c2ccccc21` [crenigacestat], the “CTG-3D luminescence at 96 h” value is reported as 2.19.

Same assay, conditions: 0.005 µM; days in culture: 65

Compared with `C[C@@H]1COCCN1c1cc(C2([S@](C)(=N)=O)CC2)nc(-c2cc[nH]c3nccc2-3)n1` [ceralasertib], `NC1(C(=O)N[C@@H](CCO)c2ccc(Cl)cc2)CCN(c2nc[nH]c3nccc2-3)CC1` [capivasertib] is higher in “CTG-3D luminescence at 96 h” value: 1.85 for the first, 1.93 for the second.

Compared with `CCN1CCN(Cc2ccc(Nc3ncc(F)c(-c4cc(F)c5nc(C)n(C(C)C)c5c4)n3)nc2)CC1` [abemaciclib], `Cc1cc(Nc2ncc(Cl)c(Nc3ccccc3S(=O)(=O)C(C)C)n2)c(OC(C)C)cc1C1CCNCC1` [ceritinib] is lower in “CTG-3D luminescence at 96 h” value: 2.02 for the first, 1.79 for the second.

Compared with `CC(C)n1nc(-c2ccc3oc(N)nc3c2)c2c(N)ncnc21` [sapanisertib], `NC(=O)c1cccc2cn(-c3ccc([C@@H]4CCCNC4)cc3)nc12` [niraparib] is higher in “CTG-3D luminescence at 96 h” value: 1.34 for the first, 1.88 for the second.

First: O=C(c1ccc(F)c(F)c1Nc1ccc(I)cc1F)N1CC(O)([C@@H]2CCCCN2)C1 [cobimetinib]
Second: CS(=O)(=O)c1ccc(C(=O)Nc2ccc(Cl)c(-c3ccccn3)c2)c(Cl)c1 [vismodegib]
The “CTG-3D luminescence at 96 h” value of the first is higher: 1.83 for the first, 1.56 for the second.

For `C[C@H](NC(=O)CCC(F)(F)F)C(=O)N[C@@H]1C(=O)N(CCO)c2ncccc2-c2ccccc21` [crenigacestat], the “CTG-3D luminescence at 96 h” value was 1.79.
